According to PubChem BioAssay (NCI):
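How tested: cells in 96-well plates exposed to compound for 48 hours at five concentrations. Here, GI50 denotes the concentration required for 50% inhibition of growth. TGI denotes the concentration required for complete inhibition of growth.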

Legend:
Assay in all cases: NCI tumour cell line growth inhibition, 48 h
NCI-H460 lung = tested on: NCI-H460 lung
M14 melanoma = tested on: M14 melanoma
NCI/ADR-RES ovarian = tested on: NCI/ADR-RES ovarian
SF-268 CNS = tested on: SF-268 CNS
RPMI-8226 leukemia = tested on: RPMI-8226 leukemia
HL-60(TB) leukemia = tested on: HL-60(TB) leukemia
NCI-H23 lung = tested on: NCI-H23 lung
IGROV1 ovarian = tested on: IGROV1 ovarian
OVCAR-3 ovarian = tested on: OVCAR-3 ovarian
HCC-2998 colon = tested on: HCC-2998 colon
HCT-116 colon = tested on: HCT-116 colon
UACC-257 melanoma = tested on: UACC-257 melanoma
NCI-H226 lung = tested on: NCI-H226 lung
OVCAR-4 ovarian = tested on: OVCAR-4 ovarian
MCF7 breast = tested on: MCF7 breast
A549 NSCLC = tested on: A549 NSCLC
SW-620 colon = tested on: SW-620 colon
COLO 205 colon = tested on: COLO 205 colon
OVCAR-8 ovarian = tested on: OVCAR-8 ovarian
SK-MEL-28 melanoma = tested on: SK-MEL-28 melanoma
CAKI-1 renal = tested on: CAKI-1 renal
MDA-MB-231 breast = tested on: MDA-MB-231 breast
CCRF-CEM leukemia = tested on: CCRF-CEM leukemia
RXF 393 renal = tested on: RXF 393 renal
BT-549 breast = tested on: BT-549 breast
HS 578T breast = tested on: HS 578T breast
UACC-62 melanoma = tested on: UACC-62 melanoma
MOLT-4 leukemia = tested on: MOLT-4 leukemia
SR leukemia = tested on: SR leukemia
K-562 leukemia = tested on: K-562 leukemia
ACHN renal = tested on: ACHN renal
SF-539 CNS = tested on: SF-539 CNS
OVCAR-5 ovarian = tested on: OVCAR-5 ovarian
UO-31 renal = tested on: UO-31 renal
SK-OV-3 ovarian = tested on: SK-OV-3 ovarian
SNB-75 CNS = tested on: SNB-75 CNS
SNB-19 CNS = tested on: SNB-19 CNS
PC-3 prostate = tested on: PC-3 prostate
T-47D breast = tested on: T-47D breast
DU-145 prostate = tested on: DU-145 prostate
SK-MEL-5 melanoma = tested on: SK-MEL-5 melanoma
SN12C renal = tested on: SN12C renal
MALME-3M melanoma = tested on: MALME-3M melanoma
786-0 renal = tested on: 786-0 renal
SF-295 CNS = tested on: SF-295 CNS
SK-MEL-2 melanoma = tested on: SK-MEL-2 melanoma
HCT-15 colon = tested on: HCT-15 colon
A498 renal = tested on: A498 renal
HOP-62 NSCLC = tested on: HOP-62 NSCLC
KM12 colon = tested on: KM12 colon
HT29 colon = tested on: HT29 colon
MDA-MB-435 = tested on: MDA-MB-435
U251 CNS = tested on: U251 CNS
TK-10 renal = tested on: TK-10 renal
HOP-92 NSCLC = tested on: HOP-92 NSCLC
NCI-H522 lung = tested on: NCI-H522 lung
EKVX NSCLC = tested on: EKVX NSCLC

C[C@]12CC[C@@H]3c4ccc(O)cc4CC[C@H]3[C@@H]1CC[C@@H]2NS(=O)(=O)c1cccc(C(F)(F)F)c1
GI50 (NCI-H460 lung): 2.6 µM
TGI (NCI-H460 lung): 6.79 µM
GI50 (M14 melanoma): 3.88 µM
TGI (M14 melanoma): 13.9 µM
GI50 (NCI/ADR-RES ovarian): 3.73 µM
TGI (NCI/ADR-RES ovarian): 16.9 µM
GI50 (SF-268 CNS): 4.52 µM
TGI (SF-268 CNS): 18.5 µM
GI50 (RPMI-8226 leukemia): 3.26 µM
TGI (RPMI-8226 leukemia): 14.2 µM
GI50 (HL-60(TB) leukemia): 3.54 µM
TGI (HL-60(TB) leukemia): 15.5 µM
GI50 (NCI-H23 lung): 3.76 µM
TGI (NCI-H23 lung): 15.8 µM
GI50 (IGROV1 ovarian): 5.19 µM
TGI (IGROV1 ovarian): 18 µM
GI50 (OVCAR-3 ovarian): 2.95 µM
TGI (OVCAR-3 ovarian): 8.6 µM
GI50 (HCC-2998 colon): 4.58 µM
TGI (HCC-2998 colon): 17.9 µM
GI50 (HCT-116 colon): 2.61 µM
TGI (HCT-116 colon): 7.12 µM
GI50 (UACC-257 melanoma): 3.54 µM
TGI (UACC-257 melanoma): 15.7 µM
GI50 (NCI-H226 lung): 3.88 µM
TGI (NCI-H226 lung): 17.2 µM
GI50 (OVCAR-4 ovarian): 2.95 µM
TGI (OVCAR-4 ovarian): 12.4 µM
GI50 (MCF7 breast): 2.72 µM
TGI (MCF7 breast): 8.49 µM
GI50 (A549 NSCLC): 3.23 µM
TGI (A549 NSCLC): 12.8 µM
GI50 (SW-620 colon): 3.72 µM
TGI (SW-620 colon): 15.6 µM
GI50 (COLO 205 colon): 2.12 µM
TGI (COLO 205 colon): 4.13 µM
GI50 (OVCAR-8 ovarian): 4.65 µM
TGI (OVCAR-8 ovarian): 19.3 µM
GI50 (SK-MEL-28 melanoma): 5.87 µM
TGI (SK-MEL-28 melanoma): 19.1 µM
GI50 (CAKI-1 renal): 3.23 µM
TGI (CAKI-1 renal): 11.8 µM
GI50 (MDA-MB-231 breast): 2.39 µM
TGI (MDA-MB-231 breast): 6.77 µM
GI50 (CCRF-CEM leukemia): 3.46 µM
TGI (CCRF-CEM leukemia): 24.1 µM
GI50 (RXF 393 renal): 2.58 µM
TGI (RXF 393 renal): 6.65 µM
GI50 (BT-549 breast): 2.7 µM
TGI (BT-549 breast): 7.48 µM
GI50 (HS 578T breast): 3.24 µM
TGI (HS 578T breast): 15.6 µM
GI50 (UACC-62 melanoma): 2.66 µM
TGI (UACC-62 melanoma): 10.7 µM
GI50 (MOLT-4 leukemia): 3.2 µM
TGI (MOLT-4 leukemia): 16.7 µM
GI50 (SR leukemia): 3.98 µM
TGI (SR leukemia): 27.2 µM
GI50 (K-562 leukemia): 3.63 µM
TGI (K-562 leukemia): 15.3 µM
GI50 (ACHN renal): 3.2 µM
TGI (ACHN renal): 11.4 µM
GI50 (SF-539 CNS): 4.21 µM
TGI (SF-539 CNS): 16.2 µM
GI50 (OVCAR-5 ovarian): 4.54 µM
TGI (OVCAR-5 ovarian): 17.4 µM
GI50 (UO-31 renal): 2.25 µM
TGI (UO-31 renal): 11.6 µM
GI50 (SK-OV-3 ovarian): 4.78 µM
TGI (SK-OV-3 ovarian): 15.3 µM
GI50 (SNB-75 CNS): 2.98 µM
TGI (SNB-75 CNS): 15.5 µM
GI50 (SNB-19 CNS): 4.64 µM
TGI (SNB-19 CNS): 18.2 µM
GI50 (PC-3 prostate): 2.78 µM
TGI (PC-3 prostate): 13.9 µM
GI50 (T-47D breast): 3.65 µM
TGI (T-47D breast): 13.4 µM
GI50 (DU-145 prostate): 5.83 µM
TGI (DU-145 prostate): 18.4 µM
GI50 (SK-MEL-5 melanoma): 1.79 µM
TGI (SK-MEL-5 melanoma): 3.29 µM
GI50 (SN12C renal): 2.19 µM
TGI (SN12C renal): 5.97 µM
GI50 (MALME-3M melanoma): 2.83 µM
TGI (MALME-3M melanoma): 8.65 µM
GI50 (786-0 renal): 3.06 µM
TGI (786-0 renal): 8.95 µM
GI50 (SF-295 CNS): 1.86 µM
TGI (SF-295 CNS): 3.63 µM
GI50 (SK-MEL-2 melanoma): 3.7 µM
TGI (SK-MEL-2 melanoma): 13 µM
GI50 (HCT-15 colon): 2.17 µM
TGI (HCT-15 colon): 5.23 µM
GI50 (A498 renal): 2.7 µM
TGI (A498 renal): 8.75 µM
GI50 (HOP-62 NSCLC): 5.18 µM
TGI (HOP-62 NSCLC): 17.9 µM
GI50 (KM12 colon): 3.4 µM
TGI (KM12 colon): 11.8 µM
GI50 (HT29 colon): 3.39 µM
TGI (HT29 colon): 10.2 µM
GI50 (MDA-MB-435): 2.8 µM
TGI (MDA-MB-435): 8.62 µM
GI50 (U251 CNS): 3.75 µM
TGI (U251 CNS): 14.3 µM
GI50 (TK-10 renal): 4.05 µM
TGI (TK-10 renal): 13.3 µM
GI50 (HOP-92 NSCLC): 1.94 µM
TGI (HOP-92 NSCLC): 7.81 µM

CSc1nc(-c2ccc(C)cc2)c(C#N)c(=O)[nH]1
TGI (NCI-H460 lung): > 100 µM
TGI (M14 melanoma): > 100 µM
TGI (NCI-H522 lung): > 100 µM
TGI (NCI/ADR-RES ovarian): > 100 µM
TGI (SF-268 CNS): > 100 µM
TGI (EKVX NSCLC): > 100 µM
TGI (RPMI-8226 leukemia): > 100 µM
TGI (HL-60(TB) leukemia): > 100 µM
TGI (NCI-H23 lung): > 100 µM
TGI (IGROV1 ovarian): > 100 µM
TGI (OVCAR-3 ovarian): > 100 µM
TGI (HCC-2998 colon): > 100 µM
TGI (HCT-116 colon): > 100 µM
TGI (UACC-257 melanoma): > 100 µM
TGI (NCI-H226 lung): > 100 µM
TGI (OVCAR-4 ovarian): > 100 µM
TGI (MCF7 breast): > 100 µM
TGI (A549 NSCLC): > 100 µM
TGI (SW-620 colon): > 100 µM
TGI (COLO 205 colon): > 100 µM
TGI (OVCAR-8 ovarian): > 100 µM
TGI (SK-MEL-28 melanoma): > 100 µM
TGI (CAKI-1 renal): > 100 µM
TGI (MDA-MB-231 breast): > 100 µM
TGI (CCRF-CEM leukemia): > 100 µM
TGI (RXF 393 renal): > 100 µM
TGI (BT-549 breast): > 100 µM
TGI (HS 578T breast): > 100 µM
TGI (UACC-62 melanoma): > 100 µM
TGI (MOLT-4 leukemia): > 100 µM
TGI (K-562 leukemia): > 100 µM
TGI (ACHN renal): > 100 µM
TGI (SF-539 CNS): > 100 µM
TGI (OVCAR-5 ovarian): > 100 µM
TGI (UO-31 renal): > 100 µM
TGI (SK-OV-3 ovarian): > 100 µM
TGI (SNB-75 CNS): > 100 µM
TGI (SNB-19 CNS): > 100 µM
TGI (PC-3 prostate): > 100 µM
TGI (T-47D breast): > 100 µM
TGI (DU-145 prostate): > 100 µM
TGI (SK-MEL-5 melanoma): > 100 µM
TGI (SN12C renal): > 100 µM
TGI (786-0 renal): > 100 µM
TGI (SF-295 CNS): > 100 µM
TGI (SK-MEL-2 melanoma): > 100 µM
TGI (HCT-15 colon): > 100 µM
TGI (A498 renal): > 100 µM
TGI (HOP-62 NSCLC): > 100 µM
TGI (KM12 colon): > 100 µM
TGI (HT29 colon): > 100 µM
TGI (MDA-MB-435): > 100 µM
TGI (U251 CNS): > 100 µM
TGI (TK-10 renal): > 100 µM
TGI (HOP-92 NSCLC): > 100 µM
